PubChem BioAssay (NCI)
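All cell lines were grown in 96-well plates and treated with compound for 48 hours. GI50 is the concentration that inhibits growth by half. TGI is the concentration that stops growth completely.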

Assays:
Assay in all cases: NCI anticancer screen, dose series, 48 h
CCRF-CEM leukemia = tested on: CCRF-CEM leukemia
HCT-15 colon = tested on: HCT-15 colon
MALME-3M melanoma = tested on: MALME-3M melanoma
SF-539 CNS = tested on: SF-539 CNS
COLO 205 colon = tested on: COLO 205 colon
ACHN renal = tested on: ACHN renal
MCF7 breast = tested on: MCF7 breast
OVCAR-4 ovarian = tested on: OVCAR-4 ovarian
A549 NSCLC = tested on: A549 NSCLC
MDA-MB-435 = tested on: MDA-MB-435
HOP-62 NSCLC = tested on: HOP-62 NSCLC
K-562 leukemia = tested on: K-562 leukemia
TK-10 renal = tested on: TK-10 renal
KM12 colon = tested on: KM12 colon
SNB-19 CNS = tested on: SNB-19 CNS
PC-3 prostate = tested on: PC-3 prostate
CAKI-1 renal = tested on: CAKI-1 renal
NCI/ADR-RES ovarian = tested on: NCI/ADR-RES ovarian
NCI-H460 lung = tested on: NCI-H460 lung
M14 melanoma = tested on: M14 melanoma
DU-145 prostate = tested on: DU-145 prostate
HCT-116 colon = tested on: HCT-116 colon
MDA-MB-231 breast = tested on: MDA-MB-231 breast
A498 renal = tested on: A498 renal
LOX IMVI melanoma = tested on: LOX IMVI melanoma
HCC-2998 colon = tested on: HCC-2998 colon
SK-MEL-2 melanoma = tested on: SK-MEL-2 melanoma
OVCAR-5 ovarian = tested on: OVCAR-5 ovarian
SW-620 colon = tested on: SW-620 colon
NCI-H226 lung = tested on: NCI-H226 lung
SN12C renal = tested on: SN12C renal
OVCAR-3 ovarian = tested on: OVCAR-3 ovarian
RPMI-8226 leukemia = tested on: RPMI-8226 leukemia
786-0 renal = tested on: 786-0 renal
UACC-62 melanoma = tested on: UACC-62 melanoma
SR leukemia = tested on: SR leukemia
UACC-257 melanoma = tested on: UACC-257 melanoma
SF-295 CNS = tested on: SF-295 CNS
NCI-H522 lung = tested on: NCI-H522 lung
IGROV1 ovarian = tested on: IGROV1 ovarian
UO-31 renal = tested on: UO-31 renal
SF-268 CNS = tested on: SF-268 CNS
HL-60(TB) leukemia = tested on: HL-60(TB) leukemia
HS 578T breast = tested on: HS 578T breast
SK-MEL-28 melanoma = tested on: SK-MEL-28 melanoma
T-47D breast = tested on: T-47D breast
OVCAR-8 ovarian = tested on: OVCAR-8 ovarian
U251 CNS = tested on: U251 CNS
MOLT-4 leukemia = tested on: MOLT-4 leukemia
RXF 393 renal = tested on: RXF 393 renal
BT-549 breast = tested on: BT-549 breast
SK-OV-3 ovarian = tested on: SK-OV-3 ovarian
SK-MEL-5 melanoma = tested on: SK-MEL-5 melanoma
HT29 colon = tested on: HT29 colon
HOP-92 NSCLC = tested on: HOP-92 NSCLC
SNB-75 CNS = tested on: SNB-75 CNS
EKVX NSCLC = tested on: EKVX NSCLC

CCOc1ccc(-c2nnc(C3CC(NC(=O)c4cccc5nccnc45)C3)n2-c2ccccc2F)nc1 (configuration not stated)
GI50 (CCRF-CEM leukemia): 21.3 µM | TGI (CCRF-CEM leukemia): 59.7 µM | GI50 (HCT-15 colon): 23.2 µM | TGI (HCT-15 colon): 89 µM | GI50 (MALME-3M melanoma): 17.4 µM | TGI (MALME-3M melanoma): 47.2 µM | GI50 (SF-539 CNS): 14.6 µM | TGI (SF-539 CNS): 29.2 µM | GI50 (COLO 205 colon): 19.1 µM | TGI (COLO 205 colon): 50.9 µM | GI50 (ACHN renal): 15.1 µM | TGI (ACHN renal): 29.8 µM | GI50 (MCF7 breast): 21.4 µM | TGI (MCF7 breast): 90.7 µM | GI50 (OVCAR-4 ovarian): 12.2 µM | TGI (OVCAR-4 ovarian): > 100 µM | GI50 (A549 NSCLC): 24.2 µM | TGI (A549 NSCLC): > 100 µM | GI50 (MDA-MB-435): 21.2 µM | TGI (MDA-MB-435): 51.5 µM | GI50 (HOP-62 NSCLC): 12.7 µM | TGI (HOP-62 NSCLC): 36.9 µM | GI50 (K-562 leukemia): 24.1 µM | TGI (K-562 leukemia): > 100 µM | TGI (TK-10 renal): 31.1 µM | GI50 (KM12 colon): 23.6 µM | TGI (KM12 colon): 60.1 µM | GI50 (SNB-19 CNS): 24.5 µM | TGI (SNB-19 CNS): > 100 µM | GI50 (PC-3 prostate): 21.1 µM | TGI (PC-3 prostate): 86.9 µM | GI50 (CAKI-1 renal): 14.3 µM | TGI (CAKI-1 renal): > 100 µM | GI50 (NCI/ADR-RES ovarian): 19.2 µM | TGI (NCI/ADR-RES ovarian): 92.9 µM | GI50 (NCI-H460 lung): 26.9 µM | TGI (NCI-H460 lung): > 100 µM | GI50 (M14 melanoma): 16.2 µM | TGI (M14 melanoma): 32.9 µM | GI50 (DU-145 prostate): 25.9 µM | TGI (DU-145 prostate): > 100 µM | GI50 (HCT-116 colon): 16 µM | TGI (HCT-116 colon): 36.2 µM | GI50 (MDA-MB-231 breast): 17.7 µM | TGI (MDA-MB-231 breast): 51.8 µM | GI50 (A498 renal): 8.31 µM | TGI (A498 renal): 58.6 µM | GI50 (LOX IMVI melanoma): 17.5 µM | TGI (LOX IMVI melanoma): 36.7 µM | GI50 (HCC-2998 colon): 18.3 µM | TGI (HCC-2998 colon): 35.3 µM | GI50 (SK-MEL-2 melanoma): 14.8 µM | TGI (SK-MEL-2 melanoma): 36.4 µM | GI50 (OVCAR-5 ovarian): 18.2 µM | TGI (OVCAR-5 ovarian): 52.8 µM | GI50 (SW-620 colon): 31.9 µM | TGI (SW-620 colon): > 100 µM | GI50 (NCI-H226 lung): 13.1 µM | TGI (NCI-H226 lung): 41.5 µM | GI50 (SN12C renal): 14.7 µM | TGI (SN12C renal): 50.5 µM | GI50 (OVCAR-3 ovarian): 13.3 µM | TGI (OVCAR-3 ovarian): 36.1 µM | GI50 (RPMI-8226 leukemia): 12.9 µM | TGI (RPMI-8226 leukemia): 35.3 µM | GI50 (786-0 renal): 17.6 µM | TGI (786-0 renal): > 100 µM | GI50 (UACC-62 melanoma): 17.5 µM | TGI (UACC-62 melanoma): 38.4 µM | GI50 (SR leukemia): 16.5 µM | TGI (SR leukemia): 52.9 µM | GI50 (UACC-257 melanoma): 19.6 µM | TGI (UACC-257 melanoma): 51 µM | GI50 (SF-295 CNS): 18.7 µM | TGI (SF-295 CNS): 39.7 µM | GI50 (NCI-H522 lung): 14.9 µM | TGI (NCI-H522 lung): 34.2 µM | GI50 (IGROV1 ovarian): 17 µM | TGI (IGROV1 ovarian): > 100 µM | TGI (UO-31 renal): > 100 µM | GI50 (SF-268 CNS): 20.4 µM | TGI (SF-268 CNS): > 100 µM | GI50 (HL-60(TB) leukemia): 20.9 µM | TGI (HL-60(TB) leukemia): 48.3 µM | GI50 (HS 578T breast): 16.3 µM | TGI (HS 578T breast): 94.8 µM | GI50 (SK-MEL-28 melanoma): 19.3 µM | TGI (SK-MEL-28 melanoma): 48.1 µM | GI50 (T-47D breast): 7.24 µM | TGI (T-47D breast): 39.6 µM | GI50 (OVCAR-8 ovarian): 22.8 µM | TGI (OVCAR-8 ovarian): > 100 µM | GI50 (U251 CNS): 10.7 µM | TGI (U251 CNS): 29.8 µM | GI50 (MOLT-4 leukemia): 14.8 µM | TGI (MOLT-4 leukemia): 39.9 µM | GI50 (RXF 393 renal): 6.82 µM | TGI (RXF 393 renal): 21.5 µM | GI50 (BT-549 breast): 10.9 µM | TGI (BT-549 breast): 23.7 µM | GI50 (SK-OV-3 ovarian): 13.6 µM | TGI (SK-OV-3 ovarian): 38.2 µM | GI50 (SK-MEL-5 melanoma): 14.2 µM | TGI (SK-MEL-5 melanoma): 27.4 µM | GI50 (HT29 colon): 15.1 µM | TGI (HT29 colon): 32.4 µM | GI50 (HOP-92 NSCLC): 4.02 µM | TGI (HOP-92 NSCLC): 40 µM | GI50 (SNB-75 CNS): 13.2 µM | TGI (SNB-75 CNS): 46.4 µM | GI50 (EKVX NSCLC): 27 µM | TGI (EKVX NSCLC): > 100 µM
